Reference: patent publication EP1792902A1, “Processes for preparation of 5-(6-quinazolinyl)-furan-2-carbaldehydes” (priority 2000, dated 2002)

Legend:
[1] = system: gastric tumor (N87) cell lines; test: Methylene Blue Growth Inhibition Assay, N87; assay type: cell-based; details: Homo sapiens, 72 h; 3 days incubation, methylene blue staining
Experimental: (§1) Human breast (BT474), head and neck (HN5) and gastric tumor (N87) cell lines and human foreskin Fibroblasts (HFF) were cultured in low glucose DMEM (Life Technologies 12320-032) containing 10% fetal bovine serum (FBS) at 37°C in a humidified 10% CO2, 90% air incubator. The SV40 transformed human mammary epithelial cell line HB4a was transfected with either human H-ras cDNA (HB4a r4.2) or the human c-erbB2 cDNA (HB4a c5.2). The HB4a clones were cultured in RPMI containing 10% FBS, insulin (5 µg/ml), hydrocortisone (5 µg/ml), supplemented with the selection agent hygromycin B (50µg/ml). Cells were harvested using trypsin/EDTA, counted using a haemocytometer, and plated in […] of the appropriate media, at the following densities, in a 96-well tissue culture plate (Falcon 3075): BT474 10,000 cells/well, HN5 3,000 cells/well, N87 10,000 cells/well, HB4a c5.2 3,000 cells/well, HB4a r4.2 3,000 cells/well, HFF 2500 cells/well. The next day, compounds were diluted in DMEM containing […] gentamicin, at twice the final required concentration, from 10mM stock solutions in DMSO. […]/well of these dilutions were added to the 100ml of media currently on the cell plates. Medium containing 0.6% DMSO was added to control wells. Compounds diluted in DMEM were added to all cell lines, including the HB4a r4.2 and HB4a c5.2 cell lines. The final concentration of DMSO in all wells was 0.3%. Cells were incubated at 37°C, 10% CO2 for 3 days. Medium was removed by aspiration. Cell biomass was estimated by staining cells with 100µl per well methylene blue (Sigma M9140, 0.5% in 50:50 ethanol:water), and incubation at room temperature for at least 30 minutes. Stain was removed, and the plates rinsed under a gentle stream of water, and air-dried. To release stain from the cells 100µl of solubilization solution was added (1% N-lauroyl sarcosine, Sodium salt, Sigma L5125, in PBS), and plates were shaken gently for about 30 minutes. Optical density at 620 nm was measured on a microplate reader. Percent inhibition of cell growth was calculated relative to vehicle treated control wells. […]

breast (BT474) = test: Methylene Blue Growth Inhibition Assay, BT474; assay type: cell-based; details: Homo sapiens, BT-474, 72 h; 3 days incubation, methylene blue staining; read-out: BT474 IC50 uM Cell
Experimental: as §1

head and neck (HN5) = test: Methylene Blue Growth Inhibition Assay, HN5; assay type: cell-based; details: Homo sapiens, 72 h; 3 days incubation, methylene blue staining; read-out: HN5 IC50 uM Cell
Experimental: as §1

[2] = Slurry equilibration method, relative physical stability of anhydrate and monohydrate crystal forms; details: for Equilibrium Form: 25°C, pXRD
[3] = biological target: EGFr isolated from solubilised A431 cell membranes (Homo sapiens, UniProt P00533); test: Substrate phosphorylation assay, EGFR tyrosine kinase inhibition; assay type: biochemical; details: tested in buffered solution
EGFr isolated from solubilised A431 cell membranes, sequence (P00533 25-1210): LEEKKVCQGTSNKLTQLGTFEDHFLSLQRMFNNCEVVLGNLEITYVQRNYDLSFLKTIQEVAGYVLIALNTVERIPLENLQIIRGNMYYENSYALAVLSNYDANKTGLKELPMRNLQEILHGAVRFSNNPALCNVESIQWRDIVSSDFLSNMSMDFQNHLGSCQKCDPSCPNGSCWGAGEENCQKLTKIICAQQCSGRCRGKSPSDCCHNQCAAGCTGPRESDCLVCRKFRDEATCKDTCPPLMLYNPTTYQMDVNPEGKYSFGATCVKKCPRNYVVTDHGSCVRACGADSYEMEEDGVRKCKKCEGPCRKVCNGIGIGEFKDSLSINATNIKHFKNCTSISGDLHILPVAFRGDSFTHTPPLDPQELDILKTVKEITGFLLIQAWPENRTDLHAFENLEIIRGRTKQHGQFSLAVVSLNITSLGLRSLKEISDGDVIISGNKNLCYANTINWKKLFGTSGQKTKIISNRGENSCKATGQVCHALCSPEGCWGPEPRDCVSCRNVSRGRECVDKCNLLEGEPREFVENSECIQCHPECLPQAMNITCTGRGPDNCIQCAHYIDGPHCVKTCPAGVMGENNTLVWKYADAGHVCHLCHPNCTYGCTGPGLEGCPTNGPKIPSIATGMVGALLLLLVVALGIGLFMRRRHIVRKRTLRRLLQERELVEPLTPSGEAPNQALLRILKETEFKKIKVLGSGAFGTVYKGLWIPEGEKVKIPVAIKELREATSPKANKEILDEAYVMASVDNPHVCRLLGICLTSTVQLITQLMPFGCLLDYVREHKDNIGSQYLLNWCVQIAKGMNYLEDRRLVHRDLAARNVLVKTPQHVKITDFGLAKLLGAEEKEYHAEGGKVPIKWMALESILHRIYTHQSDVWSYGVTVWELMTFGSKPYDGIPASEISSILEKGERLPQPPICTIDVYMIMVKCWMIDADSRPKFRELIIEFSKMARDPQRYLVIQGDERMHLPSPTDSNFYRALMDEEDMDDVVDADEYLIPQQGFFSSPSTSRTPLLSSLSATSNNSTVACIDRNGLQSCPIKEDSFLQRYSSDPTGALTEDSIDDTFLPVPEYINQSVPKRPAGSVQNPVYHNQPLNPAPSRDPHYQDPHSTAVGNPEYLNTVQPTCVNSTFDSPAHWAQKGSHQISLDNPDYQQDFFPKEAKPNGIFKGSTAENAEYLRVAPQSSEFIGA
Source text: (§2) The substrate phosphorylation assays use baculovirus expressed, recombinant constructs of the intracellular domains of c-erbB-2 and c-erbB-4 that are constitutively active and EGFr isolated from solubilised A431 cell membranes. The method measures the ability of the isolated enzymes to catalyse the transfer of the g-phosphate from ATP onto tyrosine residues in a biotinylated synthetic peptide (Biotin-[…]. Substrate phosphorylation was detected following either of the following two procedures: • a.) c-ErbB-2, c-ErbB4 or EGFr were incubated for 30 minutes, at room temperature, with 10mM MnCl2, […], and test compound (diluted from a 5mM stock in DMSO, final DMSO concentration is 2%) in 40mM HEPES buffer, pH 7.4. The reaction was stopped by the addition of EDTA (final concentration 0.15mM) and a sample was transferred to a streptavidin-coated 96-well plate. The plate was washed and the level of phosphotyrosine on the peptide was determined using a Europium-labelled antiphosphotyrosine antibody and quantified with a time-resolved fluorescence technique. • b.) ErbB2 was incubated for 50 minutes at room temperature with 15 mM MnCl2, 2 mM ATP, 0.25 mCi [g-^33P] […] The SPA signal was measured using a Packard Topcount 96-well plate scintillation counter (Packard Instrument Co., Meriden, CT).

c-erbB-2 = biological target: T1, c-erbB-2 (Homo sapiens, UniProt P04626); test: Substrate phosphorylation assay, erbB2 tyrosine kinase inhibition; assay type: biochemical; details: tested in buffered solution
T1 construct: recombinant constructs of the intracellular domains of c-erbB-2 and c-erbB-4 that are constitutively active; made in house
T1 sequence (P04626 676-1255 limits assumed): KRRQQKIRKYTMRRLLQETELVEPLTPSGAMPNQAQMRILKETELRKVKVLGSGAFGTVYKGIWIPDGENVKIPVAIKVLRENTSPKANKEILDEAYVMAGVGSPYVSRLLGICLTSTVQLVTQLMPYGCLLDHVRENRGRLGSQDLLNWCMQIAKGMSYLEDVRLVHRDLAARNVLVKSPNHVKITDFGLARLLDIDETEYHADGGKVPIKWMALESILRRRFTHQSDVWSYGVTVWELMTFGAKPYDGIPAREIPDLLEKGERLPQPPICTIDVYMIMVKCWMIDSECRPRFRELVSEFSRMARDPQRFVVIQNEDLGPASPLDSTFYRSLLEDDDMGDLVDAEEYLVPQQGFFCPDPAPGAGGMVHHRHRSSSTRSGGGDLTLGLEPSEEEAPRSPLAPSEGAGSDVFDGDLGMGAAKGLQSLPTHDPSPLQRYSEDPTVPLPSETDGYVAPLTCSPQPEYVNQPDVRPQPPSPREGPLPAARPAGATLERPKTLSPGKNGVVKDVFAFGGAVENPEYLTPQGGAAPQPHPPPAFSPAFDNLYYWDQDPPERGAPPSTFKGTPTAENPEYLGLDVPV
Source text: as §2

c-erbB-4 = biological target: T2, c-erbB-4 (Homo sapiens, UniProt Q15303); test: Substrate phosphorylation assay, erbB4 tyrosine kinase inhibition; assay type: biochemical; details: tested in buffered solution
T2 construct: recombinant constructs of the intracellular domains of c-erbB-2 and c-erbB-4 that are constitutively active; made in house
T2 sequence (Q15303 676-1308 limits assumed): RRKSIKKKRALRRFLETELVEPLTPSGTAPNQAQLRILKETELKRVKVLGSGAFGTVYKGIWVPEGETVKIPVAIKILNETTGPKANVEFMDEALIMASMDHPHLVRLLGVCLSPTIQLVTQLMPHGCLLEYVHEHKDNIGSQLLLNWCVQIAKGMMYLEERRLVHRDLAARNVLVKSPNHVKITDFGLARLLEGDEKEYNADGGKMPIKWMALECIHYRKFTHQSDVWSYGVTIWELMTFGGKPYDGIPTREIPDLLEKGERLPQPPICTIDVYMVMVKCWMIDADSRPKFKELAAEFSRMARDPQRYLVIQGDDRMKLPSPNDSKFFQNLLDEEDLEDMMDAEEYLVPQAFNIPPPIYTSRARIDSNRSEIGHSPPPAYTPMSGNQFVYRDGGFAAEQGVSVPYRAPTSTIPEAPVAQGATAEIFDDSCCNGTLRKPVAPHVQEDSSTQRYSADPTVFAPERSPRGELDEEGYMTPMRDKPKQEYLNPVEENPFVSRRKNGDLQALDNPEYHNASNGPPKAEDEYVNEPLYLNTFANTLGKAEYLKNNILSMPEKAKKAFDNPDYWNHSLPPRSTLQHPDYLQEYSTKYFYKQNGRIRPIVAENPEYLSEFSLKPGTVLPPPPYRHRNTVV
Source text: as §2

[4] = Moisture sorption testing; assay type: physicochemical; details: at the humidities to which it might be exposed (e.g., 20-75% relative humidity (RH))
Experimental: Approximately 12 mg of N-{3-Chloro-4-[(3-fluorobenzyl) oxy]phenyl}-6-[5-({[2-(methanesulphonyl)ethyl] amino}methyl)-2-furyl]-4-quinazolinamine ditosylate monohydrate salt prepared according to Example 10 was weighed into a sample pan of a moisture sorption apparatus (model number SGA-100, made by VTI). The sample was dried at 60°C under a nitrogen stream until the weight loss was less than 0.015% in 5 minutes. The relative humidity (RH) was then increased (adsorption) to 5, 15, 25, 35, 45, 55, 65, 75, 85 and 95% - at each step, equilibrium was defined as a weight change of less than 0.015% in 5 minutes. The relative humidity was then decreased (desorption) to 90, 80, 70, 60, 50, 40, 30, and 20% with the same equilibrium condition. The sorption curve (y-axis: Weight - % change vs. x-axis: % RH) is depicted in Figure 3(a).
Approximately 15 mg of N-{3-Chloro-4-[(3-fluorobenzyl) oxy]phenyl}-6-[5-({[2-(methanesulphonyl)ethyl]amino}methyl)-2-furyl]-4-quinazolinamine di-HCl salt was weighed into a sample pan of a moisture sorption apparatus (model number SGA-100 , made by VTI). The sample was dried at 60°C under a nitrogen stream until the weight loss was less than 0.015% in 5 minutes. The relative humidity was then increased (adsorption) to 5, 15, 25, 35, 45, 55, 65, 75, 85 and 95% - at each step, equilibrium was defined as a weight change of less than 0.015% in 5 minutes. […]

IC50 [1] [µM] | IC50 (breast (BT474)) [µM] | IC50 [3] [nM] | IC50 (c-erbB-2) [nM] | IC50 (c-erbB-4) [nM] | SMILES | IC50 (head and neck (HN5)) [µM] | other results
 |  |  |  |  | CS(=O)(=O)CCNCc1ccc(-c2ccc3ncnc(Nc4ccc(OCc5cccc(F)c5)c(Cl)c4)c3c2)o1 [Example 10, N-{3-Chloro-4-[(3-f/uorobenzyl)oxy]phenyl}-6-[5-({[2-(methanesulphonyl)ethyl]amino}methyl)-2-furyl]-4-quinazolinamine ditosylate monohydrate] |  | RH at which the monohydrate becomes the thermodynamically stable form ([2]; remains stable up through 100% RH, slurry equilibration at 25°C): 7 - 15 % RH
< 5 | < 5 | < 100 | < 100 | 1000 to 10000 | CS(=O)(=O)CCNCc1ccc(-c2ccc3ncnc(Nc4ccc(OCc5cccc(F)c5)c(Br)c4)c3c2)o1 [Example 12, (4-(3-Fluoro-benzyloxy)-3-bromophenyl)-(6-(5-((2-methanesulphonyl-ethylamino)-methyl)-furan-2 yl)quinazolin-4 yl)-amine ditosylate] | < 5 | 
< 5 | < 5 | < 100 | < 100 | 100 to 1000 | CS(=O)(=O)CCNCc1nc(-c2ccc3ncnc(Nc4ccc(OCc5cccc(F)c5)c(Cl)c4)c3c2)cs1 [Example 13, (4-(3-Fluoro-benzyloxy)-3-chlorophenyl)-(6-(2-((2-methanesulphonyl-ethylamino)-methyl)-thiazol-4-yl)quinazolin-4-yl)-amine ditosylate] | < 5 | 
 |  |  |  |  | CS(=O)(=O)CCNCc1ccc(-c2ccc3ncnc(Nc4ccc(OCc5cccc(F)c5)c(Cl)c4)c3c2)o1.Cc1ccc(S(=O)(=O)O)cc1.Cc1ccc(S(=O)(=O)O)cc1 [N-{3-Chloro-4-[(3-fluorobenzyl)oxy]phenyl}-6-[5-({[2-(methanesulphonyl)ethyl]amino}methyl)-2-furyl]-4-quinazolinamine ditosylate] |  | Equilibrium Form ([2]; RH 0 %, Water Volume 0 %, Water Mole Fraction 0.00, 1:1 anhydrate/monohydrate slurry in MeOH/H2O): Anhydrate; Equilibrium Form ([2]; RH 7 %, Water Volume 2 %, Water Mole Fraction 0.04, 1:1 anhydrate/monohydrate slurry in MeOH/H2O): Anhydrate; Equilibrium Form ([2]; RH 15 %, Water Volume 5 %, Water Mole Fraction 0.11, 1:1 anhydrate/monohydrate slurry in MeOH/H2O): Monohydrate; Equilibrium Form ([2]; RH 26 %, Water Volume 10 %, Water Mole Fraction 0.20, 1:1 anhydrate/monohydrate slurry in MeOH/H2O): Monohydrate; Equilibrium Form ([2]; RH 43 %, Water Volume 20 %, Water Mole Fraction 0.36, 1:1 anhydrate/monohydrate slurry in MeOH/H2O): Monohydrate; Equilibrium Form ([2]; RH 66 %, Water Volume 40 %, Water Mole Fraction 0.60, 1:1 anhydrate/monohydrate slurry in MeOH/H2O): Monohydrate; Equilibrium Form ([2]; RH 80 %, Water Volume 60 %, Water Mole Fraction 0.77, 1:1 anhydrate/monohydrate slurry in MeOH/H2O): Monohydrate; Equilibrium Form ([2]; RH 91 %, Water Volume 80 %, Water Mole Fraction 0.90, 1:1 anhydrate/monohydrate slurry in MeOH/H2O): Monohydrate; Equilibrium Form ([2]; RH 95 %, Water Volume 90 %, Water Mole Fraction 0.95, 1:1 anhydrate/monohydrate slurry in MeOH/H2O): Monohydrate; Equilibrium Form ([2]; RH 100 %, Water Volume 100 %, Water Mole Fraction 1.00, 1:1 anhydrate/monohydrate slurry): Monohydrate
 |  |  |  |  | CS(=O)(=O)CCNCc1ccc(-c2ccc3ncnc(Nc4ccc(OCc5cccc(F)c5)c(Cl)c4)c3c2)o1.Cl.Cl [di-HCl salt, N-{3-Chloro-4-[(3-fluorobenzyl)oxy]phenyl}-6-[5-({[2-(methanesulphonyl)ethyl]amino}methyl)-2-furyl]-4-quinazolinamine di-HCl salt] |  | water sorption [4]: sorbs very large amounts of water

SMILES | IC50 [1] [µM] | IC50 (breast (BT474)) [µM] | IC50 [3] [nM] | IC50 (c-erbB-2) [nM] | IC50 (c-erbB-4) [nM] | IC50 (head and neck (HN5)) [µM] | other results
CS(=O)(=O)CCNCc1ccc(-c2ccc3ncnc(Nc4ccc(OCc5cccc(F)c5)c(Cl)c4)c3c2)o1 [Example 8, N-{3-Chloro-4-[(3-fluorobenzyl)oxy]phenyl}-6-[5({[2-(methanesulphonyl)ethyl]amino}methyl)-2-furyl]-4-quinazolinamine ditosylate anhydrate] | < 5 | < 5 |  |  |  | < 5 | 
